Results on three compounds are retold here after the NIST ThermoML archive (doi:10.1021/je300810p).

As a reminder, the mass density is the mass of a sample divided by its volume. Usually vapor or sublimation pressure stands for the pressure of vapour in equilibrium with the condensed phase. The term refractive index denotes a measure of how strongly the sample bends light.

Structures are written as SMILES. Numbers after ± are expanded uncertainties.

The conditions of data set [1]: Liquid; for mass density: 101.33 kPa, Pycnometric method.
A short description of data set [2]: refractive index (Na D-line) (dimensionless). The conditions noted are these: 101.33 kPa, Liquid, Standard Abbe refractometry.

For `CC(=O)O` [acetic acid], the mass density in data set [1] (298.15 K) was 1049.42 ± 0.45 kg/m3. In addition, the “vapor or sublimation pressure” value in data set [1] (391.43 K) was found to be 101.33 ± 3.4 kPa. Also, the refractive index in data set [2] (298.15 K) is 1.3716 ± 0.0025.
Take `CC=O` [ethanal]: the mass density in data set [1] (289.15 K) was determined as 788.02 ± 0.36 kg/m3. The “vapor or sublimation pressure” value in data set [1] (293.91 K) was 101.33 ± 2.6 kPa. Besides, in data set [2] (293.15 K), the refractive index was determined as 1.3328 ± 0.0025.
`CCO` [ethanol]: the mass density in data set [1] (298.15 K) is 784.88 ± 0.36 kg/m3. For the same compound, in data set [1] (351.46 K), the “vapor or sublimation pressure” value is on record as 101.33 ± 2.6 kPa. The refractive index in data set [2] (298.15 K) came to 1.3592 ± 0.0025.
